The supplement of paper PMC10307832

Experiments:
Assay in all cases: relative viability (nuclei count vs DMSO), 5 days (fraction); higher = more cells survive
Doxorubicin + Foretinib = compound: COc1cccc2c1C(=O)c1c(O)c3c(c(O)c1C2=O)C[C@@](O)(C(=O)CO)C[C@@H]3O[C@H]1C[C@H](N)[C@H](O)[C@H](C)O1 [Doxorubicin] + COc1cc2c(Oc3ccc(NC(=O)C4(C(=O)Nc5ccc(F)cc5)CC4)cc3F)ccnc2cc1OCCCN1CCOCC1 [Foretinib] (partner 0.25 µM)
How it was run: (§1)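 One day after seeding in 1536-well plates, lung cancer cell lines were dosed by pin tool. Dosing was either single-drug or a fixed anchor-drug dose plus five library-drug doses (not always all listed) in √10 steps. After 5 days, nuclei were stained in one fix-and-stain step and counted on 4× images, and relative viability is the nuclei count of treated wells over that of vehicle wells, given as the median of duplicate plates.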

Doxorubicin + Phenformin = compound: COc1cccc2c1C(=O)c1c(O)c3c(c(O)c1C2=O)C[C@@](O)(C(=O)CO)C[C@@H]3O[C@H]1C[C@H](N)[C@H](O)[C@H](C)O1 [Doxorubicin] + N=C(N)NC(=N)NCCc1ccccc1 [Phenformin] (partner 250 µM)
How it was run: as §1

BAY61-3606 + Dasatinib = compound: COC1=C(C=C(C=C1)C2=CC3=NC=CN3C(=N2)NC4=C(C=CC=N4)C(=O)N)OC [BAY61-3606] + Cc1nc(Nc2ncc(C(=O)Nc3c(C)cccc3Cl)s2)cc(N2CCN(CCO)CC2)n1 [Dasatinib] (partner 0.075 µM)
How it was run: as §1

BAY61-3606 + Alpelisib = compound: COC1=C(C=C(C=C1)C2=CC3=NC=CN3C(=N2)NC4=C(C=CC=N4)C(=O)N)OC [BAY61-3606] + Cc1nc(NC(=O)N2CCC[C@H]2C(N)=O)sc1-c1ccnc(C(C)(C)C(F)(F)F)c1 [Alpelisib] (partner 2 µM)
How it was run: as §1

Row | Cell Line | relative viability (Doxorubicin + Foretinib; first compound 0.003162 µM) | relative viability (Doxorubicin + Foretinib; first compound 0.01 µM) | relative viability (Doxorubicin + Foretinib; first compound 0.03162 µM) | relative viability (Doxorubicin + Foretinib; first compound 0.1 µM) | relative viability (Doxorubicin + Phenformin; first compound 0.003162 µM) | relative viability (Doxorubicin + Phenformin; first compound 0.01 µM) | relative viability (Doxorubicin + Phenformin; first compound 0.03162 µM) | relative viability (Doxorubicin + Phenformin; first compound 0.1 µM) | relative viability (BAY61-3606 + Dasatinib; first compound 0.02 µM) | relative viability (BAY61-3606 + Dasatinib; first compound 0.06325 µM) | relative viability (BAY61-3606 + Dasatinib; first compound 0.2 µM) | relative viability (BAY61-3606 + Dasatinib; first compound 0.6325 µM) | relative viability (BAY61-3606 + Dasatinib; first compound 2 µM) | relative viability (BAY61-3606 + Alpelisib; first compound 0.02 µM) | relative viability (BAY61-3606 + Alpelisib; first compound 0.06325 µM) | relative viability (BAY61-3606 + Alpelisib; first compound 0.2 µM) | relative viability (BAY61-3606 + Alpelisib; first compound 0.6325 µM) | relative viability (BAY61-3606 + Alpelisib; first compound 2 µM) | relative viability (Doxorubicin + Foretinib; first compound 0.001 µM) | relative viability (Doxorubicin + Phenformin; first compound 0.001 µM)
1 | HCC-366 | 0.963 | 0.967 | 1.01 | 0.94 | 0.614 | 0.601 | 0.48 | 0.395 | 0.56 | 0.548 | 0.626 | 0.597 | 0.439 | 0.449 | 0.343 | 0.369 | 0.388 | 0.212 |  | 
2 | HCC-827 | 1 | 1.05 | 0.984 | 0.982 | 0.409 | 0.401 | 0.401 | 0.408 | 0.332 | 0.328 | 0.363 | 0.315 | 0.24 | 0.94 | 1.01 | 0.995 | 0.954 | 0.916 | 1.07 | 0.429
3 | HOP-62 | 1.07 | 1.06 | 1.11 | 1.16 | 0.625 | 0.631 | 0.542 | 0.484 | 0.744 | 0.729 | 0.691 | 0.844 | 0.634 | 0.901 |  | 0.874 | 0.947 | 0.64 | 1.05 | 0.654
4 | LC-2-ad | 0.778 | 0.714 | 0.392 | 0.321 | 0.516 | 0.562 | 0.289 | 0.304 | 0.569 | 0.496 | 0.753 | 0.622 | 0.27 | 0.851 | 0.96 | 0.875 | 0.82 | 0.671 | 0.862 | 0.498
5 | LCLC-97TM1 | 0.861 | 0.895 | 0.882 | 0.891 | 0.481 | 0.402 | 0.467 | 0.392 | 0.722 | 0.98 | 1.03 | 0.804 | 0.864 | 0.232 |  | 0.244 | 0.231 | 0.238 | 0.977 | 0.449
6 | LCLC-103H | 0.82 | 0.786 | 0.66 | 0.758 | 0.37 | 0.345 | 0.293 | 0.354 | 0.537 | 0.407 | 0.465 | 0.55 | 0.446 | 0.94 | 0.965 | 0.981 | 1.03 | 1.04 | 0.767 | 0.341
7 | LK-2 | 1.32 | 0.904 | 0.826 | 1.41 | 0.328 | 0.388 | 0.33 | 0.351 | 0.334 | 0.217 | 0.347 | 0.368 | 0.379 | 1.11 | 0.874 | 1.17 | 1.15 | 0.996 | 1.2 | 0.31
8 | LOU-NH91 | 0.879 | 0.944 | 0.931 | 0.839 | 0.695 | 0.783 | 0.698 | 0.591 | 0.538 | 0.495 | 0.513 | 0.538 | 0.489 | 0.764 | 0.643 | 0.73 | 0.798 | 0.541 | 0.742 | 0.505
